Reference: article PMC8091166 (Journal of the American Chemical Society, 2017)

Columns and labels:
[1] = tested on: KBCP20 cisplatin-resistant cervical cancer cell line; assay: Cell viability in KBCP20 cells; assay type: cell-based
[2] = tested on: KB-3-1 cervical cancer cell line; assay: Cell viability in KB-3-1 cells; assay type: cell-based
[3] = tested on: HeLa cells; assay: MTT assay, in vitro anticancer activity in HeLa cells
[4] = tested on: H460 lung cancer cell line; assay: Cell viability in H460 cells; assay type: cell-based
[5] = tested on: HeLa cells; assay: Cell viability in the presence of inhibitors; assay type: cell-based; settings: 15 μM Z-VAD-FMK
[6] = tested on: A2780 ovarian cancer cell line; assay: Cell viability in A2780 cells; assay type: cell-based
[7] = tested on: A549 lung cancer cell line; assay: Cell viability in A549 cells; assay type: cell-based
[8] = tested on: A549 CisR cisplatin-resistant lung cancer cell line; assay: Cell viability in A549 CisR cells; assay type: cell-based
[9] = tested on: A2780CP70 cisplatin-resistant ovarian cancer cell line; assay: Cell viability in A2780CP70 cells; assay type: cell-based
[10] = tested on: H460 CisR cisplatin-resistant lung cancer cell line; assay: Cell viability in H460 CisR cells; assay type: cell-based
[11] = tested on: MRC-5 normal lung fibroblasts; assay: Cell viability in MRC-5 cells; assay type: cell-based
[12] = tested on: HeLa cells; assay: Cell cycle analysis; assay type: cell-based
[13] = tested on: PARP, cleaved PARP, LC3, ERK, p-ERK in HeLa cells; assay: Western blot analysis of protein expression; assay type: cell-based
[14] = Capacity factor on a C18 RP-HPLC column; assay type: physicochemical; settings: isocratic 40:60 MeCN:H2O, 0.1% TFA; for MeCN Complex Capacity Factor: MeCN adduct of the complex
[15] = tested on: intracellular reactive oxygen species (ROS) in HeLa cells; assay: ROS analysis with DCFDA and flow cytometry; assay type: cell-based; settings: DCFDA
[16] = tested on: HeLa cells; assay: Annexin V/PI assay; assay type: cell-based
[17] = tested on: mitochondrial membrane potential (MMP) in HeLa cells; assay: JC-1 assay; assay type: cell-based; settings: 13 at 5 or 10 μM

## N.N.[Cl][Pt][Cl] [Cisplatin, cisplatin]
[1]
  IC50: 36 ± 7 µM
[2]
  IC50: 1 ± 0.3 µM
[3]; read-out: 50% growth inhibitory concentration (IC50), MTT assay
  IC50: 3 ± 1.2 µM
[4]
  IC50: 0.75 ± 0.43 µM
[5]
  change of IC50 in the presence of Z-VAD-FMK: increased by a factor of four
[6]
  IC50: 0.23 ± 0.07 µM
[7]
  IC50: 3 ± 1.8 µM
[8]; A549 CisR cells
  IC50: 12.4 ± 8.5 µM
[8]; IC50 in A549 CisR divided by IC50 in A549
  RF (A549), resistance factor: 4.1
[9]; A2780CP70 cells
  IC50: 8.2 ± 1.8 µM
[9]; IC50 in A2780CP70 divided by IC50 in A2780
  RF (A2780), resistance factor: 36
[10]; H460 CisR cells
  IC50: 3.4 ± 1.6 µM
[10]; IC50 in H460 CisR divided by IC50 in H460
  RF (H460), resistance factor: 4.5
[11]
  IC50: 0.43 ± 0.14 µM
[12]
  cell cycle arrest phase: inhibits cells predominantly in the S-phase
[13]
  expression levels of PARP, cleaved PARP, LC3, ERK, p-ERK: induced the increase of cleaved PARP levels

## COC(=O)c1ccnc(-c2cc(C(=O)OC)ccn2)c1.O.[C-]#[O+].[C-]#[O+].[C-]#[O+].[Re+] [Complex 11]
[14]
  MeCN Complex Capacity Factor: 8.2
  Aqua Complex Capacity Factor: 4.2
[3]
  relative cytotoxicity among the complexes: least active

## O.[C-]#[O+].[C-]#[O+].[C-]#[O+].[Re+].c1ccc(-c2ccnc3c2ccc2c(-c4ccccc4)ccnc23)cc1 [Complex 14]
[14]
  MeCN Complex Capacity Factor: >17
[3]
  relative cytotoxicity among the complexes: substantially diminished relative to that of 13

## OO [Complex H2O2, H2O2]
[15]
  increase in the intracellular ROS: greater than 30 fold

## COc1cc([C@@H]2c3cc4c(cc3[C@@H](O[C@@H]3O[C@@H]5CO[C@@H](C)O[C@H]5[C@H](O)[C@H]3O)[C@H]3COC(=O)[C@H]23)OCO4)cc(OC)c1O [etoposide]
[16]
  effect of pan-caspase inhibitor Z-VAD-FMK in the annexin V assay: reduce the apoptotic population

## carbonyl cyanide m-chlorophenyl hydrazine [CCCP]
[17]
  depolarization of the MMP (JC-1 aggregates): substantial reduction in the number of JC-1 aggregates
